Results: publication PMC10838102 (Journal of Experimental Pharmacology, 2024)

How the values were obtained:
[1] = concurrent administration of 2 g of curcumin and 5 mg of piperine; cited from earlier work
[2] = with piperine; cited from earlier work
Caco-2 cell monolayer = Caco-2 cell monolayer permeability assay with LC-MS/MS analysis; conditions: 2-hour permeability experiment

Compound	increase in curcumin's bioavailability [1]	increase of bioavailability of curcumin [2]	Papp classification (Caco-2 cell monolayer)
COc1cc(/C=C/C(=O)CC(=O)/C=C/c2ccc(O)c(OC)c2)ccc1O [curcumin]	approximately a twofold increase	20 folds	–
CC(C)NCC(O)COc1cccc2ccccc12 (stereo not drawn) [propranolol]	–	–	high
